Test results from article PMC10895652, “Preclinical Evaluation of Novel Positron Emission Tomography (PET) Probes for Imaging Leucine-Rich Repeat Kinase 2 (LRRK2)” (Journal of Medicinal Chemistry, 2024).

Assays:
[1] = Ex vivo whole-body biodistribution in mice; parameters: species or system CD-1 mice; conditions: for Ex vivo biodistribution: mean ± SD, n = 4
Method: The general procedure for ex vivo biodistribution studies was described previously[35],[41] with minor modification in this work. Briefly, a solution of [^18F]4 (50 μCi/100 μL) was injected into CD-1 mice via tail vein. These mice (each time point n = 4) were sacrificed at 5, 15, 30, and 60 min post tracer injection. Major organs, including whole brain, heart, liver, lung, spleen, kidneys, small intestine (including contents), muscle, and blood samples, were quickly harvested and weighted. The radioactivity present in these tissues was measured using a Cobra Model 5002/5003 γ counter, and all radioactivity measurements were automatically decay-corrected based on the half-life of fluorine-18. The results are expressed as the percentage of injected dose per gram of wet tissue (%ID/g).

[2] = Radiometabolite analysis in rat plasma (radio-HPLC); format: in vivo; conditions: rats
Method: The promising pharmacological, pharmacokinetic, and in vitro autoradiographic data encouraged us to carry out preliminary dynamic PET imaging studies of [^11C]3 and [^18F]4. […] Given the superiority of fluorine-18 such as clean positron emission, low positron range, and relatively long half-life compared with carbon-11, [^18F]4 was subjected to further investigation (Figure 6). A blocking scan was carried out with intravenous administration of compound 3 (1 mg/kg) prior to tracer injection. For both baseline and blocking studies, blood samples were extracted from the artery. Both whole-blood and plasma radioactivity concentrations were evaluated, and radiometabolites were measured in plasma samples by radio high-performance liquid chromatography (HPLC) to generate metabolite-corrected input function (Figure S2). Compartmental analyses with one- and two-tissue compartment models (1TCM and 2TCM) were carried out on regional time–activity curves. […] In the baseline study, VT of various brain regions ranged from 2.2 to 2.9 mL/cm^3, confirming the high binding of the radiotracer.

[3] = Radiometabolic analysis in mouse brain homogenate; format: in vivo; conditions: 30 min post tracer administration
Method: With the established good BBB penetration ability of [^18F]4, we then performed ex vivo biodistribution studies to obtain more in-depth information on the whole-body distribution and clearance of [^18F]4. Mice were sorted into four groups based on their survival intervals (5, 15, 30, and 60 min) after intravenous administration of [^18F]4. […] To investigate the in vivo stability of [^18F]4 in mouse brains, we conducted a radiometabolic analysis in mouse brain homogenate at 30 min post tracer administration.

LRRK2 [4] = target: T1, LRRK2 (Rattus norvegicus, UniProt F1LNJ1); experiment: In vitro autoradiography in rat brain sections; format: binding
T1 construct: from tissue; host or cells: rat brain (Sprague-Dawley rats)
T1 sequence (F1LNJ1 1-2526): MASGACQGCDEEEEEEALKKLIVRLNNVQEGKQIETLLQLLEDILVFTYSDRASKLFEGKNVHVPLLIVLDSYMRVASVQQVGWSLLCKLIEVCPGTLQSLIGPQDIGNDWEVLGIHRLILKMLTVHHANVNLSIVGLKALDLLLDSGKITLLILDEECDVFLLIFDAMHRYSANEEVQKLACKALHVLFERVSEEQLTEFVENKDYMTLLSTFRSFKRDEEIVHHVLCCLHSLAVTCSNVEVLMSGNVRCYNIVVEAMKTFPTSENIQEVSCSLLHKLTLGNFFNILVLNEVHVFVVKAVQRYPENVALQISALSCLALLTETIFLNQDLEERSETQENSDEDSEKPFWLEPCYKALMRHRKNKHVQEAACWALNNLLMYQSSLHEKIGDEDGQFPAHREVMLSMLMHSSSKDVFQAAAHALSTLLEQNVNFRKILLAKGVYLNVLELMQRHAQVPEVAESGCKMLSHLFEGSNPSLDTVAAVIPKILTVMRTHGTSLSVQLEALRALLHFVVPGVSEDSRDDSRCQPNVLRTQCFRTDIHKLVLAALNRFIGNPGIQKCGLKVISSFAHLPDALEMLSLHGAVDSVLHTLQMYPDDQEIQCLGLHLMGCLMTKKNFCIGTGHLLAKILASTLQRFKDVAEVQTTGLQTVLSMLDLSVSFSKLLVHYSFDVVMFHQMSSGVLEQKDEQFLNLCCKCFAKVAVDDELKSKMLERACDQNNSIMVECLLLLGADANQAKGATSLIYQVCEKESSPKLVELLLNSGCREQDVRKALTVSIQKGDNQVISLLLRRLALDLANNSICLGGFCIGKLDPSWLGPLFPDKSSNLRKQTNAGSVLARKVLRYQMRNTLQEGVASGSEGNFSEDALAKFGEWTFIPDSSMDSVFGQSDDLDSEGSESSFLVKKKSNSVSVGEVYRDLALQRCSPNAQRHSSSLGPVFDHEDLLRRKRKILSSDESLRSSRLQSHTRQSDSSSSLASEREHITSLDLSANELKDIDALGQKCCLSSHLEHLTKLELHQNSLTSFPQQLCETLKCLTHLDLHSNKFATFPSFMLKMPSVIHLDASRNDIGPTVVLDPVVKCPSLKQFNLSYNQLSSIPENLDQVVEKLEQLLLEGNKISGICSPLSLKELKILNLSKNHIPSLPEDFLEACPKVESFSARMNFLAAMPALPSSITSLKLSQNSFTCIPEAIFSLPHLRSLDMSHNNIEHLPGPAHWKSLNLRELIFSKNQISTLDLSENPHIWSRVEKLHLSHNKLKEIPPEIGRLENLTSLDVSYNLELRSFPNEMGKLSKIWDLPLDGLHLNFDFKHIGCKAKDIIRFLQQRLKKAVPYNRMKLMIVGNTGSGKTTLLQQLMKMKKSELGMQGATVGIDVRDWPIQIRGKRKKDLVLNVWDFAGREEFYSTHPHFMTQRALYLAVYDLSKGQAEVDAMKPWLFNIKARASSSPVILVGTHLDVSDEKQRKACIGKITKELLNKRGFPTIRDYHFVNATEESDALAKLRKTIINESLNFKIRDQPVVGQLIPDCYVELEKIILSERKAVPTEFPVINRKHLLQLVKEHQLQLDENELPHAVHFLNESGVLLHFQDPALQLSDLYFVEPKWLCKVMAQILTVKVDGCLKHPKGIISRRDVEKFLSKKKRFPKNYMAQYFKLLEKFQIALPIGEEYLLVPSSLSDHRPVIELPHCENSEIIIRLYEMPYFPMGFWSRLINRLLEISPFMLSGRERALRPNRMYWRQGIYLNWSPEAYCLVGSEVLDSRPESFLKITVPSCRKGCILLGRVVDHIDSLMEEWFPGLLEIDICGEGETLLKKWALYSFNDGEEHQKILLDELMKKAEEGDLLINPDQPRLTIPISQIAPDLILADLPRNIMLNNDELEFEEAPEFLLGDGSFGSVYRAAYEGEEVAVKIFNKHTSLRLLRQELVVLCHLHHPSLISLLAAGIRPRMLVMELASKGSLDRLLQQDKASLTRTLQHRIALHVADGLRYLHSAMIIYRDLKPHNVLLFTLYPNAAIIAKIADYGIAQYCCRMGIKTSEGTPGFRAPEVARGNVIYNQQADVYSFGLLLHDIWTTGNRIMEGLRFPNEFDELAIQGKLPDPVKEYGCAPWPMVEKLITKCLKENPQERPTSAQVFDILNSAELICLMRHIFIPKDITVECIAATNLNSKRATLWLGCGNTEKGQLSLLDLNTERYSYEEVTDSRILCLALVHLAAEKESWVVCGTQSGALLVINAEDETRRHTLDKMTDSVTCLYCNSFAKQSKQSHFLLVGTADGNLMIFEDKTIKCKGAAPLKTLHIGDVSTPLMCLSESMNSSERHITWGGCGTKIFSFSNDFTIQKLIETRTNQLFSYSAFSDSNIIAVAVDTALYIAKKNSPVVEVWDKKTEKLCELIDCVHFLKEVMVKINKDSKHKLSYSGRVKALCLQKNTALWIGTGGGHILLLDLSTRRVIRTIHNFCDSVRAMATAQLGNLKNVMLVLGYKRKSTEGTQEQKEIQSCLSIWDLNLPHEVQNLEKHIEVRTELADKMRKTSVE
Method: The general procedure for autoradiography studies was described previously with minor revision in this work.[36],[40] Brain sections from rats were preincubated with Tris-HCl buffer (50 mM), MgCl2 (1.2 mM) and CaCl2 (2 mM) solution for 20 min at ambient temperature, followed by incubation with [^11C]3 and [^18F]4 (0.48 nM). […] After incubation, brain sections were rinsed with ice-cold buffer 3 times for 2 min and dipped in cold distilled water for 10 s. The brain sections were dried with cold air and then placed on imaging plates (BAS-MS2025, GE Healthcare, NJ) for optimized contact periods. Autoradiograms were obtained and regions of interest (ROIs) were carefully drawn with the reference of naked-eye observation. Radioactivity was measured using an Amersham Typhoon 5 analyzer system and expressed as photostimulated luminescence values per unit area (PSL/mm^2) or normalized to % of radioactivity vs control.

LRRK2 [5] = target: T2, LRRK2 (Mus musculus, UniProt Q5S006); experiment: PET imaging in LPS-injected neuroinflammatory mouse model; format: in vivo; conditions: brain, LPS-injected mice versus sham group (PBS)
T2 construct: from tissue; host or cells: brain of living CD-1 mice, i.c.v; LPS or saline
T2 sequence (Q5S006 whole entry): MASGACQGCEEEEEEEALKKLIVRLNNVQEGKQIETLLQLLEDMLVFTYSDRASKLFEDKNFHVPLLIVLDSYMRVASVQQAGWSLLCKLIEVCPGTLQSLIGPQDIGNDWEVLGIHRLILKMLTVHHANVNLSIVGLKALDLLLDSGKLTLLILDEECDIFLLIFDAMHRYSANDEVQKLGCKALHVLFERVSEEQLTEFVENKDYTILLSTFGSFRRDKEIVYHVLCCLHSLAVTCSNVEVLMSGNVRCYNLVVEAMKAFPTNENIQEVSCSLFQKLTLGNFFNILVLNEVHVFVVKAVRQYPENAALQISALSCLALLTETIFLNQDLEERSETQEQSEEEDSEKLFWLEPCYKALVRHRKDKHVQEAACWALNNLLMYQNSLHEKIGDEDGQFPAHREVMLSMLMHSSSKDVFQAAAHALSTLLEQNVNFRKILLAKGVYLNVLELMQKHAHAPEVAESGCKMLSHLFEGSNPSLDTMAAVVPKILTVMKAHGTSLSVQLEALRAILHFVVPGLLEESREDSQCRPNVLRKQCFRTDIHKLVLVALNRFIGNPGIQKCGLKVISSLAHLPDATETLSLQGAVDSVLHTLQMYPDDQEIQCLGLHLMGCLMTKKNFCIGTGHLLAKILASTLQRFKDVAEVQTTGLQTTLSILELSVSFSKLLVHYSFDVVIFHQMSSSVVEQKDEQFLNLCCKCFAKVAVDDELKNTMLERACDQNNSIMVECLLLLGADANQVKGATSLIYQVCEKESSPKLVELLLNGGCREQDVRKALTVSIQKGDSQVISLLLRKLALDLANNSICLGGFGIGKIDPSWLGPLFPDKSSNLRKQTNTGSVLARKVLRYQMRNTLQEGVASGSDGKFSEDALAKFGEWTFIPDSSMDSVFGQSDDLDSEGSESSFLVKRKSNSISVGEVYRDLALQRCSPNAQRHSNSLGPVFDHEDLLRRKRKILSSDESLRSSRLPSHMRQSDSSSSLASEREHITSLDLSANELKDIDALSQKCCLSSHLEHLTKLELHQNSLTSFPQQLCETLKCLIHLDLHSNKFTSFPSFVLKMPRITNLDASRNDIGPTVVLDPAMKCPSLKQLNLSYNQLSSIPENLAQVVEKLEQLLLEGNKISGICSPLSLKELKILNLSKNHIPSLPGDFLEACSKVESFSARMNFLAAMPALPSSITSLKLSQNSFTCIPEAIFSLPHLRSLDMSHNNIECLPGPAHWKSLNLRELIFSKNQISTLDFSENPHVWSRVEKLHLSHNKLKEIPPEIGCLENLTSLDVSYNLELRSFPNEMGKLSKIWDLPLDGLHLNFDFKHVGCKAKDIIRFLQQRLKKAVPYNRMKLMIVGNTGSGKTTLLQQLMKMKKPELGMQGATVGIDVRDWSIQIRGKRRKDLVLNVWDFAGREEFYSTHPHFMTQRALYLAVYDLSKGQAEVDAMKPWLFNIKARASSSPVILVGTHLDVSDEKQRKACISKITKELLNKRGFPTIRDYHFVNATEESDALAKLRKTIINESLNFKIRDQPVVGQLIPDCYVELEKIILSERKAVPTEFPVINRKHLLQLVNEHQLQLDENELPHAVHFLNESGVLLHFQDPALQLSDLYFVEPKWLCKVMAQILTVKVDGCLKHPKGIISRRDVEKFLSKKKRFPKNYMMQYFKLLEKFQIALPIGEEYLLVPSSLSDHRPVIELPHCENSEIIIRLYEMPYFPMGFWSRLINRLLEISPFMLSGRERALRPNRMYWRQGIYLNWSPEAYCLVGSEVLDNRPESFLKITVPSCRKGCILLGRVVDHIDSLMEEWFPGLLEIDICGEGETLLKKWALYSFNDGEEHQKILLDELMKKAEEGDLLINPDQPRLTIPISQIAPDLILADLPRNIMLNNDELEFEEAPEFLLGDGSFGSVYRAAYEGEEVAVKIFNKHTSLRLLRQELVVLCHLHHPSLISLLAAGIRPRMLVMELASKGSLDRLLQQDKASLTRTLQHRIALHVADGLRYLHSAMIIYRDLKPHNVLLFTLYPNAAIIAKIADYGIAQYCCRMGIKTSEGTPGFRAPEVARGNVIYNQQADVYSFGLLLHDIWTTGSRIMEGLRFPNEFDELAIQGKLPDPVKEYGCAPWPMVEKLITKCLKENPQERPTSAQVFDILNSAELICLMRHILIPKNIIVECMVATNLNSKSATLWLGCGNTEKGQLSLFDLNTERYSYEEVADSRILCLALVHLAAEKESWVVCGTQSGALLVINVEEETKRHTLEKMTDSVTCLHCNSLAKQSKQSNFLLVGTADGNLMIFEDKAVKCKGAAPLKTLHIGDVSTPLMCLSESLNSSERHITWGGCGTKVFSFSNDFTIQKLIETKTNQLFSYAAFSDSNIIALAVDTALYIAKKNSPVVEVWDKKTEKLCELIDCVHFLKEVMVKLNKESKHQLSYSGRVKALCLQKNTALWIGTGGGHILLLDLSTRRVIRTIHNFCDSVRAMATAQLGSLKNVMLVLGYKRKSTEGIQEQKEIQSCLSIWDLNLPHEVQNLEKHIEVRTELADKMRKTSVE
Method: The CD-1 mice were anesthetized and secured in a stereotaxic frame. The skull was exposed and stereotaxic coordinates (−2.6 mm dorsal/ventral, −1.5 mm lateral, and −0.2 mm anterior/posterior from bregma) according to the procedure by Haley and McCormick.[43] The i.c.v. injections of 10 μg (in 2 μL of saline) of LPS and saline (control group) injections were administered using a microsyringe. The behavior of each mouse was characterized and recorded in the form of scores, including appearance, activity, level of consciousness, eyes, respiration rate, and respiration quality. Scores were determined by summing up the individual scores (Figure S10).
(§1) The general procedure for PET studies was described previously[35],[41] with minor modification in this work. Briefly, PET scans were carried out by a Genisys 4 PET scanner (Sofie Biosciences, Culver, CA). Mice were kept under anesthesia using 1–2% (v/v) isoflurane during the scan. The radiotracer (ca. 45 μCi/100 μL) was injected into the tail vein via a preinstalled catheter. A dynamic scan in 3D list mode was acquired for 60 min. The PET dynamic images were reconstructed using G4 software (Analysis Tools and System Setup/Diagnostics Tool, Sofie Biosciences). The radioactivity was decay-corrected and expressed as the standardized uptake value: SUV = (radioactivity per mL tissue/injected radioactivity) × body weight.

LRRK2-G2019S = experiment: PET imaging in LRRK2-G2019S mutant versus wild-type mice; format: in vivo, mouse; conditions: brain, G2019S mice versus WT mice, p ≤ 0.001
Method: as §1

SMILES: N#Cc1cccc(-c2c[nH]c3ncnc(N4CCOCC4)c23)c1[18F] [[^18F]4]
- de-radiofluorination in vivo ([1]; biodistribution study, up to 60 min): no remarkable de-radiofluorination
- Ex vivo biodistribution ([1]; blood, 5 min): 1.98 ± 0.08 %ID/g
- Ex vivo biodistribution ([1]; blood, 15 min): 1.12 ± 0.16 %ID/g
- Ex vivo biodistribution ([1]; blood, 30 min): 0.60 ± 0.08 %ID/g
- Ex vivo biodistribution ([1]; blood, 60 min): 0.37 ± 0.09 %ID/g
- Ex vivo biodistribution ([1]; bone, 5 min): 2.89 ± 2.05 %ID/g
- Ex vivo biodistribution ([1]; bone, 15 min): 1.06 ± 0.23 %ID/g
- Ex vivo biodistribution ([1]; bone, 30 min): 0.57 ± 0.05 %ID/g
- Ex vivo biodistribution ([1]; bone, 60 min): 0.82 ± 0.22 %ID/g
- Ex vivo biodistribution ([1]; brain, 5 min): 3.61 ± 0.74 %ID/g
- Ex vivo biodistribution ([1]; brain, 15 min): 0.91 ± 0.21 %ID/g
- Ex vivo biodistribution ([1]; brain, 30 min): 0.14 ± 0.01 %ID/g
- Ex vivo biodistribution ([1]; brain, 60 min): 0.04 ± 0.01 %ID/g
- Ex vivo biodistribution ([1]; heart, 5 min): 3.63 ± 0.10 %ID/g
- Ex vivo biodistribution ([1]; heart, 15 min): 1.49 ± 0.17 %ID/g
- Ex vivo biodistribution ([1]; heart, 30 min): 0.49 ± 0.07 %ID/g
- Ex vivo biodistribution ([1]; heart, 60 min): 0.25 ± 0.03 %ID/g
- Ex vivo biodistribution ([1]; kidneys, 5 min): 9.96 ± 1.01 %ID/g
- Ex vivo biodistribution ([1]; kidneys, 15 min): 6.41 ± 0.76 %ID/g
- Ex vivo biodistribution ([1]; kidneys, 30 min): 2.74 ± 0.12 %ID/g
- Ex vivo biodistribution ([1]; kidneys, 60 min): 1.32 ± 0.15 %ID/g
- Ex vivo biodistribution ([1]; liver, 5 min): 24.68 ± 10.36 %ID/g
- Ex vivo biodistribution ([1]; liver, 15 min): 15.53 ± 2.40 %ID/g
- Ex vivo biodistribution ([1]; liver, 30 min): 7.34 ± 0.78 %ID/g
- Ex vivo biodistribution ([1]; liver, 60 min): 3.97 ± 1.30 %ID/g
- Ex vivo biodistribution ([1]; lungs, 5 min): 8.88 ± 2.99 %ID/g
- Ex vivo biodistribution ([1]; lungs, 15 min): 5.46 ± 2.28 %ID/g
- Ex vivo biodistribution ([1]; lungs, 30 min): 2.86 ± 0.67 %ID/g
- Ex vivo biodistribution ([1]; lungs, 60 min): 1.65 ± 0.35 %ID/g
- Ex vivo biodistribution ([1]; muscle, 5 min): 2.34 ± 1.06 %ID/g
- Ex vivo biodistribution ([1]; muscle, 15 min): 2.04 ± 2.24 %ID/g
- Ex vivo biodistribution ([1]; muscle, 30 min): 0.38 ± 0.11 %ID/g
- Ex vivo biodistribution ([1]; muscle, 60 min): 0.39 ± 0.40 %ID/g
- Ex vivo biodistribution ([1]; pancreas, 5 min): 16.19 ± 1.99 %ID/g
- Ex vivo biodistribution ([1]; pancreas, 15 min): 5.75 ± 2.56 %ID/g
- Ex vivo biodistribution ([1]; pancreas, 30 min): 1.26 ± 0.25 %ID/g
- Ex vivo biodistribution ([1]; pancreas, 60 min): 0.76 ± 0.55 %ID/g
- Ex vivo biodistribution ([1]; small intestine, 5 min): 58.87 ± 18.10 %ID/g
- Ex vivo biodistribution ([1]; small intestine, 15 min): 58.62 ± 13.63 %ID/g
- Ex vivo biodistribution ([1]; small intestine, 30 min): 20.55 ± 17.97 %ID/g
- Ex vivo biodistribution ([1]; small intestine, 60 min): 26.44 ± 36.34 %ID/g
- Ex vivo biodistribution ([1]; spleen, 5 min): 4.38 ± 0.99 %ID/g
- Ex vivo biodistribution ([1]; spleen, 15 min): 2.12 ± 1.24 %ID/g
- Ex vivo biodistribution ([1]; spleen, 30 min): 0.52 ± 0.07 %ID/g
- Ex vivo biodistribution ([1]; spleen, 60 min): 0.39 ± 0.29 %ID/g
- initial radioactive signals in peripheral organs ([1]; spleen, heart, lungs, pancreas, stomach, small intestine, kidneys, liver): > 4 %ID/g
- Ex vivo biodistribution ([1]; stomach, 5 min): 5.72 ± 2.69 %ID/g
- Ex vivo biodistribution ([1]; stomach, 15 min): 5.69 ± 1.06 %ID/g
- Ex vivo biodistribution ([1]; stomach, 30 min): 7.88 ± 5.2 %ID/g
- Ex vivo biodistribution ([1]; stomach, 60 min): 2.41 ± 1.31 %ID/g
- parent fraction in plasma ([2]; 30 min post tracer administration): 38%
- parent fraction in plasma ([2]; 60 min post tracer administration): 23%
- parent fraction in mouse brain homogenate [3]: 69%
- radioactivity levels under blocking with GNE-0877 (LRRK2 [4]; LRRK2-deficient brain regions (cerebellum and midbrain)): no obvious blocking results
- radioactivity levels under blocking with GNE-0877 (LRRK2 [4]; LRRK2-rich brain regions (hippocampus, cerebral cortex, striatum, thalamus)): significantly reduced
- increase of radioactivity based on the AUCs (LRRK2 [5]): 28%
- increase of radioactivity accumulation based on AUC (LRRK2-G2019S): around 22%
